How the values were obtained:
BRD4 = molecular target: T1, BRD4 (Homo sapiens, UniProt O60885); assay: Proteome-wide SILAC MS protein abundance in HEK293T cells: BRD4; assay type: cell-based; conditions: 24 hours
T1 construct: degradation of endogenous BRD4 in HEK293T cells; endogenous in cells; host or cells: HEK293T (A10, A16); HEK293 DCAF16+/+ and DCAF16-/- clones (A11)
Method: HEK293T light and heavy SILAC cells were treated with DMSO and KB02-JQ1 (20 μM) or KB02-SLF (2 μM) for 24 hours, respectively. Light and heavy cells were collected and lysed in 1% NP-40 lysis buffer with complete protease inhibitor cocktail. Cells were vortexed and sonicated for 5 pulses (40%, 4). The supernatant was collected after centrifugation at 16,000 g for 10 min at 4° C. Protein concentration was determined by DC assay. 50 μg proteome from light and heavy samples were mixed, followed by methanol/chloroform precipitation. […] Next, the ratio of the peak areas under the light and heavy signals (signal-to-noise ratio>2.5) was calculated. […] In addition, peptides detected as ‘singletons,’ where only the heavy ion of a peptide pair was identified, but that cleared all other filtering parameters, were given a default assigned ratio of ‘20,’ which is defined as any measured ratio that is ≥20 and is the maximum ratio reported here.” The median SILAC ratios from quantified peptides were used as measures of protein abundance. The following quality filters were further applied to generate the plot: (1) proteins must have at least two quantified peptides; (2) proteins must be present in both replicates; (3) for each protein, the standard deviation of measured ratios of peptides must be <1.0.

[1] = Cell viability assay (Cell Titer Glo); assay type: cell-based, human; conditions: human, HEK293T cells, 24 hours, read-out: cytotoxicity IC50
Method: HEK293T cells were seeded in 96-well clear bottom white plate (Corning) at 3×10^4 cells per well in 100 μL of DMEM medium and grown for 24 h. The cells were treated with 0.625, 1.25, 2.5, 5, 10, 20 and 40 μM of KB02-SLF or KB02-JQ1 (DMSO stock, final DMEM concentration is 0.1% (v/v)) in 100 μL of DMEM medium for 24 h. 50 μL of Cell Titer Glo reagent (Promega) was added to each well and incubate for 10 min at room temperature. The luminescence was read on CLARIOstar (BMG LAB TECH).

SMILES	BRD4 abundance (MS-based proteomics) (BRD4; KB02-JQ1 20 μM)	IC50 at 24 h [1] [µM]	BRD4 abundance (MS-based proteomics) (BRD4; KB02-SLF 2 μM)
Cc1sc2c(c1C)C(c1ccc(Cl)cc1)=N[C@@H](CC(=O)NCCOCCOCCNC(=O)COc1ccc3c(c1)CCCN3C(=O)CCl)c1nnc(C)n1-2 [KB02-JQ1, (S)-2-((1-(2-chloroacetyl)-1,2,3,4-tetrahydroquinolin-6-yl)oxy)-N-(2-(2-(2-(2-(4-(4-chlorophenyl)-2,3,9-trimethyl-6H-thieno[3,2-f][1,2,4]triazolo[4,3-a][1,4]diazepin-6-yl)acetamido)ethoxy)ethoxy)ethyl)acetamide]	selective degradation of BRD4	> 50	–
CCC(C)(C)C(=O)C(=O)N1CCCC[C@H]1C(=O)O[C@H](CCc1ccc(OC)c(OC)c1)c1cccc(NC(=O)CCOCCOCCNC(=O)COc2ccc3c(c2)CCCN3C(=O)CCl)c1 [KB02-SLF, (R)-1-(3-(3-(2-(2-(2-((1-(2-chloroacetyl)-1,2,3,4-tetrahydroquinolin-6-yl)oxy)acetamido)ethoxy)ethoxy)propanamido)phenyl)-3-(3,4-dimethoxyphenyl)propyl (S)-1-(3,3-dimethyl-2-oxopentanoyl)piperidine-2-carboxylate]	–	14 ± 1.1	not BRD4

Reference: patent US11691984B2, “Compounds and methods for DCAF-mediated protein degradation” (The Scripps Research Institute, priority 2018, dated 2023)
